Assay results published in ChEMBL document CHEMBL1123022, “S-(nitrocarbobenzoxy)glutathiones: potent competitive inhibitors of mammalian glyoxalase II” (J Med Chem, 1985).

What was measured:
[1] = molecular target: Hydroxyacylglutathione hydrolase, mitochondrial (Rattus norvegicus, UniProt O35952); experiment: Binding affinity towards rat liver glyoxalase II
[2] = molecular target: Hydroxyacylglutathione hydrolase, mitochondrial (Rattus norvegicus) (UniProt O35952); experiment: […] inhibitory activity against rat liver glyoxalase II
[3] = molecular target: T1, Lactoylglutathione lyase (Rattus norvegicus) (UniProt Q6P7Q4); experiment: […] inhibitory activity against rat liver glyoxalase I
T1 sequence (whole entry): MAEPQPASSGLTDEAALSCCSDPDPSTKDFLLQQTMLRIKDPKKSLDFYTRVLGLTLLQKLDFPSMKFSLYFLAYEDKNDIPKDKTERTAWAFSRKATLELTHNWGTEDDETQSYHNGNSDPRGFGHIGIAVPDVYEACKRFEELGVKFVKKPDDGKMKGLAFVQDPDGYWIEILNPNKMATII

Ki [1] | [I] 0.5 [2] | [I] 0.5 [3] | Compound
65 µM | 165 µM |  | NC(CCC(=O)NC(CSC(=O)OCc1ccccc1)C(=O)NCC(=O)O)C(=O)O (centres undefined)
9 µM | 15 µM |  | NC(CCC(=O)NC(CSC(=O)OCc1cccc([N+](=O)[O-])c1)C(=O)NCC(=O)O)C(=O)O (centres undefined)
15 µM | 20 µM |  | NC(CCC(=O)NC(CSC(=O)OCc1ccccc1[N+](=O)[O-])C(=O)NCC(=O)O)C(=O)O (centres undefined)
6.5 µM | 12 µM | 925 µM | NC(CCC(=O)NC(CSC(=O)OCc1ccc([N+](=O)[O-])cc1)C(=O)NCC(=O)O)C(=O)O (centres undefined)
